Columns and labels:
[1] = tested on: 786-0; test: NCI-60 SRB assay, 786-0 (Renal Cancer); type: cell-based, human; details: 10 µM, 48 h; for G%: growth vs untreated control
Procedure: (§1) Primary anticancer assay was performed on a panel of 60 human cancer cell lines derived from nine neoplastic diseases, in accordance with the protocol of the Drug Evaluation Branch, National Cancer Institute, Bethesda, Maryland, USA[22]. Cells were incubated with tested compounds at 10 µM for 48 h. The growth percentage was evaluated spectrophotometrically using a protein binding dye, SRB. Results for each tested compound were reported as the percent of growth of treated cells when compared to untreated control cells.
(§2) To better compare the activity profile of these two series of compounds, compounds 5 and 8 were selected and then evaluated towards a panel of sixty cancer cell lines corresponding to nine different cancer types, i.e. leukaemia, melanoma, as well as lung, colon, central nervous system, ovarian, renal, prostate and breast cancers (NCI evaluation). Indeed, it is now well established that the growth inhibitory patterns of anticancer drugs against the NCI-60 cell line panel correlated well with their modes of action. For example, compounds that bind to tubulin have similar growth inhibition patterns regardless of which site on tubulin they bind[30]. […] Compounds were tested using the sulforhodamine B (SRB) assay that provides a direct cell density index. The amount of dye incorporated by the cells increases with the increase of the total protein biomass. Cells were incubated for 48 h with compounds at 10 µM concentration, then cell growth was evaluated spectrophotometrically and presented as the percent of untreated control cells. Values of the most sensitive cell lines were compared to those obtained with JMV5038 (Figure 4, for all data see SI).

[2] = tested on: UACC-257; test: NCI-60 SRB assay, UACC-257 (Melanoma); type: cell-based, human; details: 10 µM, 48 h; for G%: growth vs untreated control
Procedure: as §1, §2

[3] = tested on: SNB-75; test: NCI-60 SRB assay, SNB-75 (CNS Cancer); type: cell-based, human; details: 10 µM, 48 h; for G%: growth vs untreated control
Procedure: as §1, §2

[4] = tested on: EKVX; test: NCI-60 SRB assay, EKVX (NSCLC); type: cell-based, human; details: 10 µM, 48 h; for G%: growth vs untreated control
Procedure: as §1, §2

[5] = tested on: NIH-3T3 non-cancerous cells; test: Neutral red uptake (NRU) toxicity assay, NIH-3T3; type: cell-based; details: Mus musculus, NIH3T3, 72 h, non-cancerous mouse fibroblasts
Procedure: Melanoma human cancer cell line (A375 and MDA-MB-435) were obtained from ATCC. The NIH-3T3 cell line was generously gifted by the ANSM (French National Agency for Medicines and Health Products Safety, Vendargues, France). Cells were cultured in Dulbecco’s Modified Eagle Medium (DMEM, Sigma Aldrich) supplemented with 10% heat-inactivated foetal calf serum (FCS, Gibco), 2 mM glutamax (Gibco), 100 IU/mL penicillin G sodium (Sigma Aldrich), 100 lU/mL streptomycin sulphate (Sigma Aldrich). The cells were allowed to grow at 37 °C in a fully humidified atmosphere containing 5% CO2.
A viability assay was used to evaluate the cytotoxic activity on A375 and MDA-MB-435 melanoma cells as previously described. According to OCDE/ICCVAM guidance n°129, NRU assay was also used to evaluate the toxicity on the non-cancerous NIH-3T3 cells. Cells were seeded at a final concentration of 2000 cells/well (A375), 3000 cells/well (NIH-3T3) or 7500 cells/well (MDA-MB-435) in 96-well microtiter plates for 24 h. Then, cells were exposed to two negative controls (1% DMSO in culture medium (vehicle) and culture medium alone), or to different compounds freshly dissolved in DMSO, in a range of concentration from 0.01 to 40 µM (six wells per concentration). After 72 h of incubation, cells were stained with new medium containing 50 µg/mL of neutral red (3-amino-7-dimethylamino-2-methylphenazine hydrochloride, Sigma Aldrich) at 37 °C for 2 h. The neutral red medium solution was then removed and the wells were washed with PBS. Finally, 100 µL of solution containing ethanol, acetic acid and water (50/1/49 v/v/v respectively) were added into the wells and the absorbance was measured at 540 nm using the microplate reader 352 Multiscan MS (Labsystems). Cell survival rates were normalised to the absorbance values of untreated control cells. IC50 was obtained using a logistic regression model on Graphpad Prism 5.0 software. Results are given as the mean ± standard deviation (SD) of three independent experiments. Statistical analysis was performed using the Student’s t-test.
Then, all active compounds on the two melanoma cell lines (IC50 < 40 µM) were assessed on the NIH-3T3 mouse fibroblast cell line, in order to check the toxicity of our compounds on non-cancerous cells. […] As a possible modification of the mechanism of action was hypothesised for these two derivatives (see above), this phenomenon could probably be also correlated with the cytotoxicity observed on the NIH-3T3 cell line.

[6] = tested on: NCI-H23; test: NCI-60 SRB assay, NCI-H23 (NSCLC); type: cell-based, human; details: 10 µM, 48 h; for G%: growth vs untreated control
Procedure: as §1, §2

[7] = tested on: IGROV1; test: NCI-60 SRB assay, IGROV1 (Ovarian Cancer); type: cell-based, human; details: 10 µM, 48 h; for G%: growth vs untreated control
Procedure: as §1, §2

[8] = tested on: SF-268; test: NCI-60 SRB assay, SF-268 (CNS Cancer); type: cell-based, human; details: 10 µM, 48 h; for G%: growth vs untreated control
Procedure: as §1, §2

[9] = tested on: MDA-MB-231; test: NCI-60 SRB assay, MDA-MB-231 (Breast Cancer); type: cell-based, human; details: 10 µM, 48 h; for G%: growth vs untreated control;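 on Mean G% - G%: mean growth across the NCI-60 panel minus this line's growth with positive meaning more sensitive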
Procedure: as §1, §2

[10] = tested on: NCI-H460; test: NCI-60 SRB assay, NCI-H460 (NSCLC); type: cell-based, human; details: 10 µM, 48 h; for G%: growth vs untreated control
Procedure: as §1, §2

[11] = tested on: HCT-116; test: NCI-60 SRB assay, HCT-116 (Colon Cancer); type: cell-based, human; details: 10 µM, 48 h; for G%: growth vs untreated control
Procedure: as §1, §2

[12] = tested on: RXF 393; test: NCI-60 SRB assay, RXF 393 (Renal Cancer); type: cell-based, human; details: 10 µM, 48 h; for G%: growth vs untreated control
Procedure: as §1, §2

[13] = tested on: CAKI-1; test: NCI-60 SRB assay, CAKI-1 (Renal Cancer); type: cell-based, human; details: 10 µM, 48 h; for G%: growth vs untreated control
Procedure: as §1, §2

[14] = tested on: MDA-MB-468; test: NCI-60 SRB assay, MDA-MB-468 (Breast Cancer); type: cell-based, human; details: 10 µM, 48 h; for G%: growth vs untreated control;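 on Mean G% - G%: mean growth across the NCI-60 panel minus this line's growth with positive meaning more sensitive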
Procedure: as §1, §2

[15] = tested on: UACC-62; test: NCI-60 SRB assay, UACC-62 (Melanoma); type: cell-based, human; details: 10 µM, 48 h; for G%: growth vs untreated control
Procedure: as §1, §2

[16] = tested on: MALME-3M; test: NCI-60 SRB assay, MALME-3M (Melanoma); type: cell-based, human; details: 10 µM, 48 h; for G%: growth vs untreated control
Procedure: as §1, §2

[17] = tested on: DU-145; test: NCI-60 SRB assay, DU-145 (Prostate Cancer); type: cell-based, human; details: 10 µM, 48 h; for G%: growth vs untreated control
Procedure: as §1, §2

[18] = tested on: HOP-92; test: NCI-60 SRB assay, HOP-92 (NSCLC); type: cell-based, human; details: 10 µM, 48 h; for G%: growth vs untreated control;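 on Mean G% - G%: mean growth across the NCI-60 panel minus this line's growth with positive meaning more sensitive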
Procedure: as §1, §2

[19] = tested on: HT29; test: NCI-60 SRB assay, HT29 (Colon Cancer); type: cell-based, human; details: 10 µM, 48 h; for G%: growth vs untreated control;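 on Mean G% - G%: mean growth across the NCI-60 panel minus this line's growth with positive meaning more sensitive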
Procedure: as §1, §2

[20] = tested on: SK-MEL-28; test: NCI-60 SRB assay, SK-MEL-28 (Melanoma); type: cell-based, human; details: 10 µM, 48 h; for G%: growth vs untreated control
Procedure: as §1, §2

[21] = tested on: CCRF-CEM; test: NCI-60 SRB assay, CCRF-CEM (Leukemia); type: cell-based, human; details: 10 µM, 48 h; for G%: growth vs untreated control
Procedure: as §1, §2

## C[C@@H]1NC(c2ccc(N=[N+]=[N-])cc2)=Nc2nc3ccccn3c2C1=O [Compound 5, (4S)-4-methyl-2-(4-azidophenyl)-3,4-dihydro-5H-pyrido[1’,2’:1,2]imidazo[4,5-d][1,3]diazepin-5-one]
[1]
  Mean G% - G%: -9,88%
  G%: 95,14%
other
  melting point: 235 to 236 °C (dec.)
[2]
  Mean G% - G%: -15,59%
  G%: 100,85%
[3]
  Mean G% - G%: 14,91%
  G%: 70,35%
[4]
  Mean G% - G%: 3,45%
  G%: 81,81%
[5]
  IC50: > 40 µM
[6]
  Mean G% - G%: -1,81%
  G%: 87,07%
[7]
  Mean G% - G%: 10,76%
  G%: 74,50%
[8]
  Mean G% - G%: -12,35%
  G%: 97,61%
[9]
  Mean G% - G%: 4,91%
  G%: 80,35%
[10]
  Mean G% - G%: -8,41%
  G%: 93,67%
[11]
  Mean G% - G%: -2,45%
  G%: 87,71%
[12]
  Mean G% - G%: -1,17%
  G%: 86,43%
[13]
  Mean G% - G%: 10,49%
  G%: 74,77%
[14]
  Mean G% - G%: 11,88%
  G%: 73,38%
[15]
  Mean G% - G%: 17,97%
  G%: 67,29%
[16]
  Mean G% - G%: 3,28%
  G%: 81,98%
[17]
  Mean G% - G%: -18,38%
  G%: 103,64%
[18]
  Mean G% - G%: -17,00%
  G%: 102,26%
[19]
  Mean G% - G%: 10,46%
  G%: 74,80%
[20]
  Mean G% - G%: -9,13%
  G%: 94,39%
[21]
  Mean G% - G%: -12,13%
  G%: 97,39%

## C[C@@H]1NC(c2csc3ccccc23)=Nc2nc3ccccn3c2C1=O [Compound 8, (4S)-4-methyl-2-benzothiophen-3-yl-3,4-dihydro-5H-pyrido[1’,2’:1,2]imidazo[4,5-d][1,3]diazepin-5-one]
[1]
  Mean G% - G%: -14,72%
  G%: 89,59%
other
  melting point: 135 to 137 °C
[2]
  Mean G% - G%: -23,68%
  G%: 98,55%
[3]
  Mean G% - G%: 60,36%
  G%: 14,51%
[4]
  Mean G% - G%: 0,63%
  G%: 74,24%
[5]
  IC50: > 40 µM
[6]
  Mean G% - G%: 3,92%
  G%: 70,95%
[7]
  Mean G% - G%: 14,89%
  G%: 59,98%
[8]
  Mean G% - G%: 8,82%
  G%: 66,05%
[9]
  Mean G% - G%: 6,94%
  G%: 67,93%
[10]
  Mean G% - G%: -10,32%
  G%: 85,19%
[11]
  Mean G% - G%: 2,74%
  G%: 72,13%
[13]
  Mean G% - G%: 39,76%
  G%: 35,11%
[14]
  Mean G% - G%: 4,18%
  G%: 70,69%
[15]
  Mean G% - G%: -12,07%
  G%: 86,94%
[16]
  Mean G% - G%: -0,21%
  G%: 75,08%
[17]
  Mean G% - G%: 2,24%
  G%: 72,63%
[18]
  Mean G% - G%: 34,61%
  G%: 40,26%
[19]
  Mean G% - G%: -10,58%
  G%: 85,45%
[20]
  Mean G% - G%: -23,33%
  G%: 98,20%

## C[C@@H]1NC(c2ccc(Br)cc2)=Nc2nc3ccccn3c2C1=O [JMV5038]
[1]
  Mean G% - G%: -28,86%
  G%: 83,10%
[2]
  Mean G% - G%: -15,71%
  G%: 69,95%
[3]
  Mean G% - G%: 4,08%
  G%: 50,16%
[5]
  IC50: > 100 µM
[6]
  Mean G% - G%: 0,57%
  G%: 53,67%
[7]
  Mean G% - G%: 11,16%
  G%: 43,08%
[8]
  Mean G% - G%: -29,20%
  G%: 83,44%
[9]
  Mean G% - G%: 1,53%
  G%: 52,71%
[10]
  Mean G% - G%: 21,74%
  G%: 32,50%
[11]
  Mean G% - G%: 25,02%
  G%: 29,22%
[12]
  Mean G% - G%: -13,94%
  G%: 68,18%
[13]
  Mean G% - G%: 10,09%
  G%: 44,15%
[14]
  Mean G% - G%: 54,74%
  G%: -0,50%
[15]
  Mean G% - G%: 5,01%
  G%: 49,23%
[16]
  Mean G% - G%: 2,49%
  G%: 51,75%
[17]
  Mean G% - G%: -33,50%
  G%: 87,74%
[18]
  Mean G% - G%: -5,24%
  G%: 59,48%
[19]
  Mean G% - G%: 36,72%
  G%: 17,52%
[20]
  Mean G% - G%: -11,91%
  G%: 66,15%
[21]
  Mean G% - G%: -25,20%
  G%: 79,44%
